The subject of series [1] is Ile164 receptor. To be noted: cited from earlier work; for binding affinity: competition with [125I]cyp in the presence of GTP, Ile164 receptor.
The subject of series [2] is Ile164 receptor. As to conditions: Ile164 receptor compared to Thr164 receptor; cited from earlier work.
In another series the test system is human Ile164 receptor. As to conditions: transgenic mice overexpressing human Ile164 receptor in the heart compared to wild-type receptor; cited from earlier work.
The subject of another series is Thr164 receptor. As to conditions: COS-7 cells transiently transfected; salmeterol 10 minutes at 37 °C, perfused with saline 30 min; n = 5, p = 0.02.

Procedure for Thr164 receptor: The exosite binding studies were carried out by methods as described in reference 4. Briefly, COS-7 cells were transiently transfected with constructs consisting of Thr164 or Ile164 cDNAs in the vector pBC12BI as previously described (4). Cells were grown in 35 mm dishes as monolayers. […] The media was removed, and cells perfused with saline at a rate of 20 ml/min for 30 min. Cells were detached by scraping and cell membranes prepared. […] Reactions were run for 2 hrs at 25 °C. Bound radioligand was separated from unbound by vacuum filtration over Whatman GF/C filters, which were counted in a gamma counter at 70% efficiency. Specific binding was defined as total minus non-specific binding, corrected for protein.

Turning to `CNC[C@H](O)c1ccc(O)c(O)c1` [epinephrine], in the series with Ile164 receptor [1], the binding affinity result is given as “small decrease in binding affinity”. The “stimulation of adenylyl cyclase” value in the series on Ile164 receptor [2] is on record as “decreased stimulation”.

Take `CC(C)NCC(O)c1ccc(O)c(O)c1` (stereo not shown) [isoproterenol]: the binding affinity result with Ile164 receptor [1] was “small decrease in binding affinity”. For the same compound, the binding curves entry in the series on Ile164 receptor [1] (in the absence of GTP, Ile164 compared to Thr164 receptor (Figure 2)) is given as “different between the two receptors”. For the same compound, in the series on human Ile164 receptor, the “adenylyl cyclase activity in response to agonist” value is on record as “lowered activities”.

For the compound `NC[C@H](O)c1ccc(O)c(O)c1` [norepinephrine], the binding affinity result with Ile164 receptor [1] is recorded as “small decrease in binding affinity”.

For the compound `OCc1cc(C(O)CNCCCCCCOCCCCc2ccccc2)ccc1O` (stereo not shown) [salmeterol], the salmeterol exosite binding in the series on Thr164 receptor stood at 49 ± 4%.

These data come from patent EP1169483B1, “VARIATION IN DRUG RESPONSE RELATED TO POLYMORPHISMS IN BETA2- ADRENERGIC RECEPTOR” (UNIVERSITY OF CINCINNATI, priority 1999, dated 2001).
